≈ marks a conversion by molar mass, not a printed value. Read-outs that look alike come from different tables or passages of the source.
Key:
[1] = Solubility of oligofurans in organic solvent; type: physicochemical; conditions: for solubility: in chloroform (solvent stated)
[2] = Thermogravimetric analysis (TGA) / stability in air; type: physicochemical; conditions: stable in air in the absence of light, FIG. 3
Procedure: FIG. 3 depicts Thermogravimetric Analysis (TGA) of oligofurans (a) 5F-8F and (b) 9F under N2, rate: 5° C./min.
FIG. 11 depicts thermogravimetric analysis (TGA) of oligofurans 6F, 8F and DH-6F under N2. Rate: 5° C./min.

c1coc(-c2ccc(-c3ccc(-c4ccc(-c5ccc(-c6ccco6)o5)o4)o3)o2)c1 [6F, α-sexifuran]
solubility of 6F relative to corresponding 6T ([1]; in chloroform): over 10 times
solubility ([1]; organic solvent or mixture, read-out: solubility): 700 µg/mL (≈ 1760 µM)
decomposition temperature [2]: 303 °C

c1csc(-c2ccc(-c3ccc(-c4ccc(-c5ccc(-c6cccs6)s5)s4)s3)s2)c1 [6T, α-sexithiophene, reference compound]
solubility [1]: < 50 µg/mL

c1coc(-c2ccc(-c3ccc(-c4ccc(-c5ccc(-c6ccc(-c7ccc(-c8ccc(-c9ccco9)o8)o7)o6)o5)o4)o3)o2)c1 [9F, α-nonafuran]
solubility in warm acetone ([1]; warm acetone, Soxhlet extraction): slightly soluble

— patent US8921582B2, “Oligo- and polyfurans, preparation and uses thereof” (Yeda Research and Development Co. Ltd., priority 2009, dated 2014)
